Experimental data: the METLIN SMRT retention time set (Domingo-Almenara et al. 2019)

Assay: gradient 5% acetonitrile 3 min, to 50% in 2 min, to 85% in 15 min, held 3 min, 100 µL/min
Details: column: Zorbax Extend-C18 2.1 x 50 mm; eluents: water / acetonitrile, 0.1% formic acid
In short: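 Using water and acetonitrile that each contained 0.1% formic acid, mixtures of ~100 pure standards were separated at 100 μL/min on a Zorbax Extend-C18 column (2.1 × 50 mm, 1.8 μm). The HPLC fed a quadrupole time-of-flight mass spectrometer working in positive and negative ionization mode, with dead and dwell volumes of 40 μL and 900 μL. Data were acquired over 3 months. Retention time was read from computationally picked adduct peaks after manual inspection of each.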

For O=C(NCC1CCCO1)c1cccc(Nc2c(-c3ccc(Cl)cc3)nc3cnccn23)c1 (configuration not stated), the RP-LC retention time was 753 s.
For O=S(=O)(c1ccc2c(c1)OCCO2)N1CCN(S(=O)(=O)C2CC2)CC1, the RP-LC retention time was 762 s.
Compound O=C(Cn1nc(-n2cccn2)ccc1=O)Nc1cc(C(F)(F)F)ccc1Cl has an RP-LC retention time of 730 s.
For COc1ccc(S(=O)(=O)N2CCC(c3noc(-c4ccccc4)n3)CC2)cc1Cl, the RP-LC retention time was 1140 s.
COc1c(C=O)c2c(c(OC)c1OC)-c1ccc(OC)c(=O)cc1[C@@H](NC(C)=O)CC2 gave an RP-LC retention time of 725 s.
O=C(Nc1ccc2c(c1)OCCO2)c1nn(CC2CC2)c2c1CNCC2 gave an RP-LC retention time of 568 s.
Work on CS(=O)(=O)Nc1cccc(NC(=O)c2ccc(N3CCCC3)nn2)c1 yielded an RP-LC retention time of 598 s.
Work on CCCC(CCC)C(=O)N1CCC(Cc2nnc(C3CCOCC3)o2)C1 (configuration not stated) yielded an RP-LC retention time of 755 s.
Work on Cc1ccc(NC(=O)CCC(=O)N2CCSc3nc(C)cc(C)c32)cc1 yielded an RP-LC retention time of 717 s.
COc1ccc(CCNC(=O)c2nc(CCS(=O)(=O)c3ccccc3)no2)cc1OC gave an RP-LC retention time of 754 s.
CCCN1CCN(C(=O)CCC(=O)N2CCc3c(c(C(=O)N4CCCC4)nn3C)C2)CC1 gave an RP-LC retention time of 577 s.
Work on CCOc1ccc(-c2noc(-c3nn(-c4ccc(F)cc4)c(=O)c4ccccc34)n2)cc1OC yielded an RP-LC retention time of 1240 s.
For CCc1ccccc1N(C)C(=O)C1CCCN(c2ncnc3c2nc2n3CCCCC2)C1 (configuration not stated), the RP-LC retention time was 909 s.
Work on CN1C(=O)C(CC(=O)NCC2CCCCC2)Sc2ncccc21 (configuration not stated) yielded an RP-LC retention time of 761 s.
Work on O=C(Cn1nc2n(c1=O)CCCCC2)N1CCN(c2ccc(F)cc2)CC1 yielded an RP-LC retention time of 701 s.
CC(C)CC(=O)N1CCC2(CC1)NCc1ccccc1-n1ccnc12 showed an RP-LC retention time of 594 s.
In the case of CCCCC(=O)Nc1nc(-c2ccc3c(c2)N(CCC)C(=O)CO3)cs1, the RP-LC retention time is reported as 1010 s.
Work on O=C(CCc1ccccc1)NCC1CCN(Cc2ccccn2)CC1 yielded an RP-LC retention time of 556 s.
With O=C(Cn1c(=O)c2cc(-c3ccco3)nn2c2ncccc21)NCCc1ccccc1 the RP-LC retention time was 797 s.
Work on O=C(Nc1cccc(C(F)(F)F)c1)NC1CCN(c2ccc(F)cc2)C1=O (configuration not stated) yielded an RP-LC retention time of 923 s.
CC(C)Oc1ccc(-c2noc(CCn3nc(-c4ccc(F)cc4)ccc3=O)n2)cc1 showed an RP-LC retention time of 1100 s.
Work on Cc1nn2c(N3CCN(c4ccccn4)CC3)cc(C(C)C)nc2c1-c1ccccc1 yielded an RP-LC retention time of 823 s.
With CC(C)c1nc(NC(=O)Cn2nc3c(cc2=O)CCCCC3)n[nH]1 the RP-LC retention time was 632 s.
COCCN1CC2(CCN(S(=O)(=O)c3ccc(C)c(Cl)c3)CC2)C1c1ccccc1 (configuration not stated) showed an RP-LC retention time of 765 s.
Work on CN(C)CC[C@@H](c1ccc(Cl)cc1)c1ccccn1 yielded an RP-LC retention time of 659 s.
Work on COc1ccc(NC(=O)N2CCC(c3cc(N)on3)CC2)cc1 yielded an RP-LC retention time of 640 s.
Work on CCOC(=O)C1CCN(S(=O)(=O)c2ccc(Cl)c(-c3nnc(-c4ccccc4)o3)c2)CC1 yielded an RP-LC retention time of 1130 s.
With O=C(CN1C(=O)CCC1=O)Nc1cccc(NC(=O)CN2C(=O)CCC2=O)c1 the RP-LC retention time was 692 s.
COc1ccc2nc(NC3=NCN(CCc4cccs4)CN3)nc(C)c2c1 gave an RP-LC retention time of 743 s.
Work on CCNC(=O)c1cc(N2CCCC2)nc2c(C)cccc12 yielded an RP-LC retention time of 702 s.
Compound O=C(Cc1csc2nc(-c3ccccc3)cn12)NC1CCCc2ccccc21 (configuration not stated) has an RP-LC retention time of 851 s.
Compound Cc1nc(N2CCN(c3ccccn3)CC2)nc2c1C(=O)CCC2 has an RP-LC retention time of 583 s.
Cc1cc(NC(=O)C(=O)NCC2(c3ccc(F)cc3)CCOCC2)no1 showed an RP-LC retention time of 736 s.
With Cc1cc(C(=O)NC2CC2)nn1C the RP-LC retention time was 600 s.
Cc1cccc(N2CCN(C(=O)c3cc(C4CC4)[nH]n3)CC2)c1C gave an RP-LC retention time of 921 s.
Compound Cc1ncc2c(n1)CCN(C(=O)c1ccccc1Br)C2 has an RP-LC retention time of 655 s.
In the case of CCC(=O)N(C1CCOCC1)C1CCN(S(=O)(=O)c2cccc(Cl)c2)CC1, the RP-LC retention time is reported as 872 s.
In the case of Cc1c(C)n(-c2ccccc2)c2ncn(CC(=O)NC3CCCC3)c(=O)c12, the RP-LC retention time is reported as 799 s.
For CCC(=O)N1CCC(Cc2noc(C3CC3)n2)C1 (configuration not stated), the RP-LC retention time was 671 s.
Compound CNC(=O)C1CCCN(c2nc3ncn(CC(=O)Nc4cc(OC)ccc4OC)c(=O)c3s2)C1 (configuration not stated) has an RP-LC retention time of 705 s.
With CSc1cccc(NC(=O)C2CC(=O)N(c3ccc4c(c3)CCN4C(C)=O)C2)c1 (configuration not stated) the RP-LC retention time was 730 s.
In the case of COC(=O)c1cccc(C(=O)Nc2cccc(OC)c2)n1, the RP-LC retention time is reported as 817 s.
In the case of O=S(=O)(c1ccc2nncn2c1)N(Cc1cccc(F)c1)c1cccc(F)c1, the RP-LC retention time is reported as 851 s.
CC(C)NC(=O)C1CCCN(c2cc(=O)n(C)c(=O)n2C)C1 (configuration not stated) showed an RP-LC retention time of 595 s.
With CCCN1C(=O)c2cc(S(=O)(=O)NCCc3cccs3)ccc2Oc2cccnc21 the RP-LC retention time was 1050 s.
With COc1ccc(CNC(=O)C2CCN(c3nnc4cccc(C)n34)CC2)cc1 the RP-LC retention time was 646 s.
Compound CN(C)c1ccc(/C=C/C(=O)c2cc(Cl)ccc2O)cc1 has an RP-LC retention time of 1120 s.
With Cn1nnc2cc(-c3noc(C4CC(=O)N(c5cccc(Cl)c5)C4)n3)ccc21 (configuration not stated) the RP-LC retention time was 864 s.
CCCN1CCN(S(=O)(=O)c2cc(-c3[nH]ncc3C(=O)N(C)C)oc2C)CC1 showed an RP-LC retention time of 566 s.
For CCc1cccc(NC(=O)Cn2c(=O)c3cc(C)nn3c3ncccc32)c1, the RP-LC retention time was 767 s.
For Cc1ccnc(NC(=O)C2CC(=O)N(c3n[nH]c4ccccc34)C2)c1 (configuration not stated), the RP-LC retention time was 592 s.
Compound Cc1ccc(-c2ncc3c(=O)n(CC(=O)N4CCCC4)c(=O)n(C)c3n2)cc1 has an RP-LC retention time of 888 s.
COc1ccccc1NC(=O)N1CCCC1c1nc(-c2ccccc2OC)no1 (configuration not stated) gave an RP-LC retention time of 894 s.
In the case of Cc1ccc(-c2nc(-c3ccc4c(c3)ncn4CCC(=O)N3CCCC3)no2)s1, the RP-LC retention time is reported as 753 s.
CCc1ccc(S(=O)(=O)NCCc2cn(C)c3ncccc23)cc1 showed an RP-LC retention time of 786 s.
Work on CCn1c(=O)c(N2CCCC(C(=O)N3CCN(c4ccc(F)cc4)CC3)C2)nc2ccccc21 (configuration not stated) yielded an RP-LC retention time of 1090 s.
O=C(CSc1nc2ncccc2[nH]1)N1CCN(c2ccc(F)cc2)CC1 showed an RP-LC retention time of 649 s.
Compound CCOCCOC(=O)c1ccc(NC(=O)C(C)(C)C)cc1 has an RP-LC retention time of 815 s.
Cc1cccc(N2CCN(S(=O)(=O)c3cc(-c4nnc(C5CCC5)o4)co3)CC2)c1 gave an RP-LC retention time of 1110 s.
With CC(C)N1C(=O)c2cccnc2Sc2cc(NC(=O)C3(c4ccccc4)CC3)ccc21 the RP-LC retention time was 1020 s.
Cc1ccccc1C(=O)N1CCC2(C1)C(=O)N(C)c1ccccc12 (configuration not stated) showed an RP-LC retention time of 767 s.
CCc1ccc(C(=O)NC2CCN(c3cc(-c4ccc(Cl)cc4)[nH]n3)C2)cc1 (configuration not stated) gave an RP-LC retention time of 879 s.
For COc1ccc(CC(=O)NC(C)C(=O)Nc2nc3ccccc3[nH]2)cc1Cl (configuration not stated), the RP-LC retention time was 671 s.
Work on CCOc1cc(C(=O)Nc2nc(-c3ccc4c(c3)NC(=O)CO4)cs2)cc(OCC)c1OCC yielded an RP-LC retention time of 1030 s.
For O=C(NCc1ccccc1)C1CCc2nc(N3CCN(C(=O)C4CCC4)CC3)sc2C1 (configuration not stated), the RP-LC retention time was 578 s.
O=C(Nc1nc(-c2ccc([N+](=O)[O-])cc2)cs1)c1ccc(COc2c(F)c(F)cc(F)c2F)o1 gave an RP-LC retention time of 1190 s.
COc1ccc(-c2ncc3c(n2)CCN(C(=O)c2cccc(Cl)c2)C3)cc1 showed an RP-LC retention time of 975 s.
